Results published in patent US20180207228A1, “PEPTIDE COMBINATIONS AND USES THEREOF FOR TREATING GRASS ALLERGY” (ALK-Abelló A/S, priority 2015, published 2018).
Where no end group is shown, it is not given here.

Test: Bio-stability in 25% human serum (T½, degradation pattern by UHPLC and MS)
Type: in vitro ADME
Method: The supernatant was analyzed by UHPLC-UV/VIS and the peak-height/peak-area of the original peptide was determined at each time point. T½ of the original peptide was estimated by plotting Ln (peak-area) as a function of time. […] Therefore, the degradation pattern of each peptide was additionally studied. Extra peaks compared to the peak of the original peptide in the chromatogram were notified as potential degradation products. To assess the degradation pattern of each peptide and identify degradation products, the test samples were also investigated by mass spectroscopy (MS). Some peptides, for example, may be prone to cleavage by endopeptidases resulting in short peptide fragments unfit for binding to the HLA binding site, whereas other peptides may be more prone to cleavage by exopeptidases which may cleave one or more amino acid residues from the N or C-terminal end of the peptide resulting in a conserved HLA binding. […] Therefore, it is important to look at both the MS data and functional data to estimate the extent and effect of the degradation.

AYESYKFIPALEAAVKQAYA-OH [peptide 285]
<−3aa (%) (degradation details at 60 min): 0% | Sum full length or −1aa to −3aa (degradation details at 60 min): 100% | −1aa to −3aa (%) (degradation details at 60 min): 34% | half-life (male, 37° C.): 1.37 h | remaining at 1 h (male, degradation details at 60 min, read-out: Full length (%)): 66%
